Assay results published in ChEMBL document CHEMBL5346914, “Optimization of carbazole carboxamide RORγt agonists: Challenges in improving the metabolic stability and maintaining the agonistic activity” (Eur J Med Chem, 2023).

Experiments:
[1] = target: T1, Nuclear receptor ROR-gamma (Homo sapiens, UniProt P51449); experiment: Agonist activity at human RORgammat LBD (265 to 507 residues) expressed in Escherichia coli BL21(DE3) cells incubated for 1 hr FRET assay
T1 sequence (P51449 whole entry): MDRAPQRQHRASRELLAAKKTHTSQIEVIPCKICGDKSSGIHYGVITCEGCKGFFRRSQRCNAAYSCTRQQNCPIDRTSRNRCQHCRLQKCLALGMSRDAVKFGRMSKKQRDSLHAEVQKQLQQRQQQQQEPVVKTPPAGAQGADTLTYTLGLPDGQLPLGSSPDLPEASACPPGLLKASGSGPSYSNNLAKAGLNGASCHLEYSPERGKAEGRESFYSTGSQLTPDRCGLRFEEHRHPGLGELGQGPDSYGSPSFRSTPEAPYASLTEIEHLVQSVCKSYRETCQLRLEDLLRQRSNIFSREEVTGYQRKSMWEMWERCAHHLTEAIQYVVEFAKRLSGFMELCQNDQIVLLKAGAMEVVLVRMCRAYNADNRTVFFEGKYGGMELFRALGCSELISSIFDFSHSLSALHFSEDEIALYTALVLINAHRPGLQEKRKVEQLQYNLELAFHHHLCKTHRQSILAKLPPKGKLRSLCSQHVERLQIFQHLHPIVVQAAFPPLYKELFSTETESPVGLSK

[2] = Microsomal stability in mouse liver microsome assessed as half life at 1 uM preincubated for 10 mins followed by NADPH addition measured upto 60 mins by HPLC-MS/MS analysis; type: ADME; conditions: liver microsomes, time < 70 min
[3] = target: T1, Nuclear receptor ROR-gamma; experiment: Agonist activity at Gal4-fused human RORgammat LBD expressed in HEK293T cells assessed as luciferase activity incubated for 16 to 20 hrs by luciferase reporter gene assay; type: cell-based
[4] = target: T1, Nuclear receptor ROR-gamma; experiment: Inverse agonist activity at human RORgammat LBD (265 to 507 residues) expressed in Escherichia coli BL21(DE3) cells incubated for 1 hr FRET assay

EC50 [1] [nM]	half-life at 1 µM [2] [min]	further results	Structure (SMILES)
12.5	–	–	CCn1c2ccc(CC3CC3)cc2c2cc(C(=O)NCc3ccc(S(C)(=O)=O)cn3)ccc21
28.3	37.1	EC50 [3]: 348 nM	CCS(=O)(=O)c1ccc(C(COC)NC(=O)c2ccc3c(c2)c2cc(CC4CC4)ccc2n3CCF)cc1 (racemic)
–	40.8	–	CCn1c2ccc(CC3CC3)cc2c2cc(C(=O)N[C@H](COC)c3ccc(S(=O)(=O)CC)cc3)ccc21
–	20.4	–	CCn1c2ccc(OCC(C)C)cc2c2cc(C(=O)NCc3ccc(S(=O)(=O)CC)cc3)ccc21
9.7	–	–	CCn1c2ccc(CC3CC3)cc2c2cc(C(=O)NCc3ccc(S(=O)(=O)CC)cn3)ccc21
10.3	20.8	–	CCn1c2ccc(CC(C)(C)F)cc2c2cc(C(=O)NCc3ccc(S(=O)(=O)CC)cc3)ccc21
14.7	41.4	–	CCn1c2ccc(CC3CC3)cc2c2cc(C(=O)NC(CO)c3ccc(S(=O)(=O)CC)cc3)ccc21 (racemic)
181	–	–	CCn1c2ccc(CN(C)C)cc2c2cc(C(=O)NCc3ccc(S(=O)(=O)CC)cc3)ccc21
12.6	–	–	CCn1c2ccc(CC3CCC3)cc2c2cc(C(=O)NCc3ccc(S(=O)(=O)CC)cc3)ccc21
–	> 145	–	CCn1c2ccc(CC3CC3)cc2c2cc(C(=O)NC(COC)c3ccc(S(=O)(=O)CC)cc3)ccc21 (racemic)
–	–	IC50 [4]: 6590 nM	CCn1c2ccc(CC3COC3)cc2c2cc(C(=O)NCc3ccc(S(=O)(=O)CC)cc3)ccc21
–	48.8	–	CCn1c2ccc(CC3CC3)cc2c2cc(C(=O)NCc3ccc(S(=O)(=O)CC)cc3)ccc21
–	16.5	–	CCn1c2ccc(OC3CC3)cc2c2cc(C(=O)NCc3ccc(S(=O)(=O)CC)cc3)ccc21
–	19.9	–	CCn1c2ccc(OC(C)C(F)(F)F)cc2c2cc(C(=O)NCc3ccc(S(=O)(=O)CC)cc3)ccc21 (stereo unspecified)
–	> 154	–	CCn1c2ccc(CC3CC3)cc2c2cc(C(=O)N[C@@H](COC)c3ccc(S(=O)(=O)CC)cc3)ccc21
–	26.2	–	CCn1c2ccc(CC(C)C(F)(F)F)cc2c2cc(C(=O)NCc3ccc(S(=O)(=O)CC)cc3)ccc21 (stereo unspecified)
15.7	80.4	EC50 [3]: 245 nM	CCS(=O)(=O)c1ccc(CNC(=O)c2ccc3c(c2)c2cc(CC4CC4)ccc2n3CCF)cc1
–	17	–	CCn1c2ccc(OC(C)C)cc2c2cc(C(=O)NCc3ccc(S(C)(=O)=O)cn3)ccc21
29.4	–	–	CCn1c2ccc(C(=O)NCc3ccc(S(=O)(=O)CC)cc3)cc2c2c(OC(C)C)cccc21
5.6	18.2	–	CCn1c2ccc(OC(C)C)cc2c2cc(C(=O)NCc3ccc(S(=O)(=O)CC)cn3)ccc21
12.1	14.8	–	CCn1c2ccc(OC(C)C)cc2c2cc(C(=O)NCc3ccc(S(C)(=O)=O)cc3)ccc21
–	16.4	–	CCn1c2ccc(OC3CCC3)cc2c2cc(C(=O)NCc3ccc(S(=O)(=O)CC)cc3)ccc21
7.8	14.1	–	CCS(=O)(=O)c1ccc(CNC(=O)c2ccc3c(c2)c2cc(OC(C)C)ccc2n3CCF)cc1
10.9	26.9	–	CCn1c2ccc(CC(C)C)cc2c2cc(C(=O)NCc3ccc(S(=O)(=O)CC)cc3)ccc21
–	17.9	–	CCn1c2ccc(OC(C)C)cc2c2cc(C(=O)NC(CO)c3ccc(S(=O)(=O)CC)cc3)ccc21 (racemic)
–	8.7	–	CCn1c2ccc(OC(C)C)cc2c2cc(C(=O)NCc3ccc(S(=O)(=O)CC)cc3)ccc21
